Read-outs that look alike come from different tables or passages of the source. Blank lines part the entries; values can stand above or below the molecule they belong to.
Legend:
Type in all cases: biochemical
FLT3 = target: T1, FLT3 (Homo sapiens, UniProt P36888); assay: FLT3 kinase ADP Hunter Plus assay; conditions: for FLT3 experimental hit classification: hit definition IC50 < 10µM
T1 construct: purchased Invitrogen PV3182
T1 sequence (P36888 564-993 limits assumed): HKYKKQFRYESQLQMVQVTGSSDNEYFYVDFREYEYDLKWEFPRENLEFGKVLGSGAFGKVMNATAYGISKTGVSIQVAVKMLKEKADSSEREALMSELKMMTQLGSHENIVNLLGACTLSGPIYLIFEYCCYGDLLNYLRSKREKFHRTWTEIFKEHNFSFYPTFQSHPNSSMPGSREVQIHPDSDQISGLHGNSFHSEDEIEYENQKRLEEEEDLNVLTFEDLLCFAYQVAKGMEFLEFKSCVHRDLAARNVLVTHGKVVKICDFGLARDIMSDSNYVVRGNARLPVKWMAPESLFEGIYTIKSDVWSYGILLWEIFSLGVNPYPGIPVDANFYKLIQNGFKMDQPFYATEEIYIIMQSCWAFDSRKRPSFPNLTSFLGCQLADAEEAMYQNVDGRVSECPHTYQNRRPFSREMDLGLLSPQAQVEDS
Description: Kinase activity was measured with the commercial ADP Hunter™ Plus assay (DiscoveRx Ref. #33-016), a homogeneous assay measuring ADP accumulation, as a universal product of kinase activity. The assay was conducted following the manufacturer’s recommendations and adapting the protein and substrate concentrations for optimal conditions. The kinase assay buffer was 15 mM HEPES, pH 7.4, 20 mM NaCl, 1 mM EGTA, 0.02% Tween-20, 10 mM MgCl2 and 0.1 mg/ml BGG (bovine γ-globulin). All PIM kinase assays were performed with 100 µM ABLtide ([…]) from GenScript as the peptide substrate and 100 µM ATP. Protein concentration (from Invitrogen, PV3182) was 0.4 ng/µl. To calculate the IC50 of the ETP-compounds, serial 1∶3 dilutions were prepared and the reaction was started with the addition of ATP. The reaction was incubated for 1 h at 37°C. Reagents A and B (DiscoveRx) were sequentially added to the wells, and the plates were incubated for 30 min at 25°C. Fluorescence counts were read in an EnVision 2104 Multilabel Reader (Perkin Elmer) with the recommended settings (544 and 580 nm as the excitation and emission wavelengths, respectively). Values were plotted against the inhibitor concentrations and fit to a sigmoid dose–response curve using ActivityBase software.

ARK5 = target: T2, ARK5 (Homo sapiens, UniProt O60285); assay: ProQinase kinase panel, % inhibition at fixed concentration
T2 sequence (O60285 1-661): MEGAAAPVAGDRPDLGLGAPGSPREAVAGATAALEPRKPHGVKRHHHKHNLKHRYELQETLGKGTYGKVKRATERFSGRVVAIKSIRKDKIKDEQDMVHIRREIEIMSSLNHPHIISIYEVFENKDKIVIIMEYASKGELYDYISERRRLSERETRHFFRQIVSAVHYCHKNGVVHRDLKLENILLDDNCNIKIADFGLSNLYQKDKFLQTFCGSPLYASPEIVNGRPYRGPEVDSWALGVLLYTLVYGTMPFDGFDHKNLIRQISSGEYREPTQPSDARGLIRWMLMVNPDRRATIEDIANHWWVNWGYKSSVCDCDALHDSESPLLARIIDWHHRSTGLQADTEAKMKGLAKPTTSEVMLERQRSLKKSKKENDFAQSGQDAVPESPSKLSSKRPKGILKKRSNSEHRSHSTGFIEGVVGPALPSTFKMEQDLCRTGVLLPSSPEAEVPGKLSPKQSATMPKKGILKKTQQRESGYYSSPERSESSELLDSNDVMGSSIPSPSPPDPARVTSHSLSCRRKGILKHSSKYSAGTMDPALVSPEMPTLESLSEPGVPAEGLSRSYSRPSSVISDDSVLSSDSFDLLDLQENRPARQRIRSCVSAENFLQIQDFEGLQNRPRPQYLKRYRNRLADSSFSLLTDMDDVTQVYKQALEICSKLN
Description: (§1) Once compounds 7 and 8 were synthesized, a pairwise comparison was performed to strictly evaluate the real impact of this fragment-hopping where imidazopyridazine is replaced by triazolopyridine.

RPS6KA1 = RPS6KA1 (Homo sapiens, UniProt Q15418); assay: as above
Description: as §1

SGK1 = target: T3, SGK1 (Homo sapiens, UniProt O00141); assay: as above; conditions: for inhibition at 10 µM: inhibitor at 10 µM
T3 sequence (O00141 1-431): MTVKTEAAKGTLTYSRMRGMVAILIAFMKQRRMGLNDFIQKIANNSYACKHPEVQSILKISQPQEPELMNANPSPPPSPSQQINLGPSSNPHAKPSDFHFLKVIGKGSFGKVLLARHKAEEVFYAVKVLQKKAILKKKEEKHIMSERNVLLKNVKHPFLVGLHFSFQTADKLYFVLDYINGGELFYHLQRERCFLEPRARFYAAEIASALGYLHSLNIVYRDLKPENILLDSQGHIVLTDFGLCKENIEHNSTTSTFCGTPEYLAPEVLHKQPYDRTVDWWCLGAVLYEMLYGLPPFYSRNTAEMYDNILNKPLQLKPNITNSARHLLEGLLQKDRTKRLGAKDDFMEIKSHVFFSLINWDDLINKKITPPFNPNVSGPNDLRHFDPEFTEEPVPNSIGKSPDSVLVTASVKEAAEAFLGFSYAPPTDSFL
Description: as §1

FGF-R1 = FGF-R1 (Homo sapiens, UniProt P11362); assay: as above; conditions: for inhibition at 10 µM: inhibitor at 10 µM
Description: as §1

PAK1 = PAK1 (Homo sapiens, UniProt Q13153); assay: as above; conditions: read-out: PAK1 percentage of inhibition
Description: as §1

PIM-3 = PIM-3 (Homo sapiens, UniProt Q86V86); assay: PIM-3 kinase ADP Hunter Plus assay; conditions: 100 µM ATP
Description: Kinase activity was measured with the commercial ADP Hunter™ Plus assay (DiscoveRx Ref. #33-016), a homogeneous assay measuring ADP accumulation, as a universal product of kinase activity. The assay was conducted following the manufacturer’s recommendations and adapting the protein and substrate concentrations for optimal conditions. The kinase assay buffer was 15 mM HEPES, pH 7.4, 20 mM NaCl, 1 mM EGTA, 0.02% Tween-20, 10 mM MgCl2 and 0.1 mg/ml BGG (bovine γ-globulin). All PIM kinase assays were performed with 100 µM PIMtide ([…]) as the peptide substrate and 100 µM ATP. The protein concentrations were 50, 350 and 500 ng/µl for PIM-1, 2 and 3, respectively. To calculate the IC50 of the ETP-compounds, serial 1∶5 dilutions were prepared and the reaction was started with the addition of ATP. The reaction was incubated for 1 h at 25°C. Reagents A and B (DiscoveRx) were sequentially added to the wells, and the plates were incubated for 30 min at 37°C. Fluorescence counts were read in a Victor instrument (Perkin Elmer) with the recommended settings (544 and 580 nm as the excitation and emission wavelengths, respectively). Values were plotted against the inhibitor concentrations and fit to a sigmoid dose–response curve using GraphPad software.

[1] = ADP Hunter Plus, 100 µM ATP, read-out: FLT-3 IC50
[2] = average of two data points, read-out: SGK1 percentage of inhibition
[3] = average of two data points, read-out: FGF-R1 percentage of inhibition
[4] = compound 7 vs compound 1, 10 µM

Sequence of PAK1 (Q13153 whole entry): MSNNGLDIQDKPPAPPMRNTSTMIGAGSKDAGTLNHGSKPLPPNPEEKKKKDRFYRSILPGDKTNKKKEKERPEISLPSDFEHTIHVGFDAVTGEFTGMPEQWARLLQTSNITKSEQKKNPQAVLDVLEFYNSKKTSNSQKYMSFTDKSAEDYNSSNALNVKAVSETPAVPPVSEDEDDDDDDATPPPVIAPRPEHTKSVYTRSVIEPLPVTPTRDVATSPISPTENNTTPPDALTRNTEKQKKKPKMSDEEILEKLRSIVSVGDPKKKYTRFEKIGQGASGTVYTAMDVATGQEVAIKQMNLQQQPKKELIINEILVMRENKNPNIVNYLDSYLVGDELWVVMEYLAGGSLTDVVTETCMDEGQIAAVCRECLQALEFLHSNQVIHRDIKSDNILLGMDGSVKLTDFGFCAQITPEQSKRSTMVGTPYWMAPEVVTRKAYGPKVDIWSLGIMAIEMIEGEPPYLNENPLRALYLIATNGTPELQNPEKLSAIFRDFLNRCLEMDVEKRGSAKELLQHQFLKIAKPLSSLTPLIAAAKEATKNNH
Sequence of RPS6KA1 (Q15418 whole entry, species assumed): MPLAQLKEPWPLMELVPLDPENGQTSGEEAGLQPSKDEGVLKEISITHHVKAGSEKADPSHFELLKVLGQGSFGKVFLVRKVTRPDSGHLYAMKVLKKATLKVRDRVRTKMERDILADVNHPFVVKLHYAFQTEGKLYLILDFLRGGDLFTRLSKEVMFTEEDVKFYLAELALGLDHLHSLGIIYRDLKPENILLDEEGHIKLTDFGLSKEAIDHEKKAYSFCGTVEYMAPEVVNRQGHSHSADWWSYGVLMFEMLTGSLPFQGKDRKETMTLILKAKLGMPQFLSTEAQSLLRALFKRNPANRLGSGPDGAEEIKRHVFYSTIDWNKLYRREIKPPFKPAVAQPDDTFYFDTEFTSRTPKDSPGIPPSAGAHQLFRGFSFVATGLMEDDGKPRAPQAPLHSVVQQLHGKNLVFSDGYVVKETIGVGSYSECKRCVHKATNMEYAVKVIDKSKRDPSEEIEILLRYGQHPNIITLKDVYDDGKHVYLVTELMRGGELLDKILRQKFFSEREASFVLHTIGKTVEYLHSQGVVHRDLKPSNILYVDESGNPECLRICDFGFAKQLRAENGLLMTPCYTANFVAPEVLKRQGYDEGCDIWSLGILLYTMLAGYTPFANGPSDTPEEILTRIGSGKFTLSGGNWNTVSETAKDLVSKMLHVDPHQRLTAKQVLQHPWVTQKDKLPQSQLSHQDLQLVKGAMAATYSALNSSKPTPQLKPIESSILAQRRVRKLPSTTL
Sequence of FGF-R1 (P11362 22-822, species assumed): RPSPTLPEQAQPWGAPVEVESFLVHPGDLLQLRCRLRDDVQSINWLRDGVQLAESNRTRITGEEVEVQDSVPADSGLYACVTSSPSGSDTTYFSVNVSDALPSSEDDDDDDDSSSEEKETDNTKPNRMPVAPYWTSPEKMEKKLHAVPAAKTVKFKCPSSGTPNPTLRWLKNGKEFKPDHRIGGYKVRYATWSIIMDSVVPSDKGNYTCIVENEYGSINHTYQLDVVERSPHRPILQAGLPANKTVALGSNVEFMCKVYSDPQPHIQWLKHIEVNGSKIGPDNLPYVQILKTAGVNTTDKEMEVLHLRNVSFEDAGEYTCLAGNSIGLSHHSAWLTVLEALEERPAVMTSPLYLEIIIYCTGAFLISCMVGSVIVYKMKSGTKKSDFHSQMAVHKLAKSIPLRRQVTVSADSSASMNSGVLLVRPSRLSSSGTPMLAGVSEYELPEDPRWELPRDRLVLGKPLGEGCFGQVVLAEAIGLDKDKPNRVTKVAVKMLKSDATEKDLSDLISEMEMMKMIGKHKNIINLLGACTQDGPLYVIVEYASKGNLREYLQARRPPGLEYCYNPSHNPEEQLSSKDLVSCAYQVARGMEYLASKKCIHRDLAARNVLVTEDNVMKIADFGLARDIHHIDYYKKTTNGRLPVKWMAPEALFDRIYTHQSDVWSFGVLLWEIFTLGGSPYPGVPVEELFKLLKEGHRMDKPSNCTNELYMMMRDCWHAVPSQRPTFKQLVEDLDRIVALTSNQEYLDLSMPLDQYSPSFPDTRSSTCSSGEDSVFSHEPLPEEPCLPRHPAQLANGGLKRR

IC50 (FLT3; [1]): 1 nM
SMILES: Oc1ccc(-c2cnc3ccc(NCc4ccc(F)cc4)nn23)cc1 [Compound 1]

SMILES: CN1CCC(CNc2ccc3ncc(-c4cccc(OC(F)(F)F)c4)n3n2)CC1 [Compound 3, reference compound]
inhibition at 10 µM (ARK5; read-out: ARK5 percentage of inhibition): 42% | inhibition at 10 µM (RPS6KA1; read-out: RPS6KA1 percentage of inhibition): 48% | inhibition at 10 µM (SGK1; [2]): 55% | inhibition at 10 µM (FGF-R1; [3]): 65% | inhibition at 5 µM (PAK1): 8% | IC50 (PIM-3): 46 nM | IC50 (FLT3): 5 nM

inhibition at 10 µM (ARK5; inhibitor at 10 µM, average of two data points, read-out: ARK5 percentage of inhibition): 13% | inhibition at 10 µM (RPS6KA1; inhibitor at 10 µM, average of two data points, read-out: RPS6KA1 percentage of inhibition): 45% | inhibition at 10 µM (SGK1; [2]): 12% | inhibition at 10 µM (FGF-R1; [3]): 19% | inhibition at 10 µM (PAK1; inhibitor at 10 µM, average of two data points): 5% | IC50 (PIM-3): 51 nM | IC50 (FLT3; [1]): 1840 nM | FLT3 experimental hit classification (FLT3): hit
SMILES: Oc1ccc(-n2nnc3ccc(NCc4ccc(F)cc4)nc32)cc1 [Compound 7, 4-[5-(4-Fluoro-benzylamino)-[1], [2], [3]triazolo[4,5-b]pyridin-3-yl]-phenol]
ARK5 improvement in percentage of inhibition (ARK5; [4]): c (This designation indicates that the improvement in percentage of inhibition was equal or greater than 50%) | RPS6KA1 improvement in percentage of inhibition (RPS6KA1; [4]): c (This designation indicates that the improvement in percentage of inhibition was equal or greater than 50%) | SGK1 improvement in percentage of inhibition (SGK1; [4]): c (This designation indicates that the improvement in percentage of inhibition was equal or greater than 50%) | FGF-R1 improvement in percentage of inhibition (FGF-R1; [4]): c (This designation indicates that the improvement in percentage of inhibition was equal or greater than 50%)

inhibition at 5 µM (ARK5; inhibitor at 5 µM, average of two data points, read-out: ARK5 percentage of inhibition): 18% | inhibition at 5 µM (RPS6KA1; inhibitor at 5 µM, average of two data points, read-out: RPS6KA1 percentage of inhibition): 37% | SGK1 increment in percentage of inhibition (SGK1; compound 8 (5 µM) versus compound 3 (10 µM)): > 50% | inhibition at 5 µM (SGK1; inhibitor at 5 µM, average of two data points, read-out: SGK1 percentage of inhibition): 0% | inhibition at 5 µM (FGF-R1; inhibitor at 5 µM, average of two data points, read-out: FGF-R1 percentage of inhibition): 16% | inhibition at 5 µM (PAK1; inhibitor at 5 µM, average of two data points): 2% | IC50 (PIM-3): 724 nM | IC50 (FLT3; [1]): 1320 nM | FLT3 experimental hit classification (FLT3): hit
SMILES: CN1CCC(CNc2ccc3nnn(-c4cccc(OC(F)(F)F)c4)c3n2)CC1 [Compound 8, (1-Methyl-piperidin-4-ylmethyl)-[3-(3-trifluoromethoxy-phenyl)-3H-[1], [2], [3]triazolo[4,5-b]pyridin-5-yl]-amine]
SGK1 improvement in percentage of inhibition (SGK1; compound 8 (5 µM) vs compound 3 (10 µM)): c (This designation indicates that the improvement in percentage of inhibition was greater than 50%)
